Assay results published in publication PMC12282258, “Understanding the substrate recognition and catalytic mechanism of 2-O-methyl fucosidases from glycoside hydrolase family 139” (The Journal of Biological Chemistry, 2025).

Molecular target: T1, BT0984^GH139 (Bacteroides thetaiotaomicron, UniProt Q8A933)
T1 construct: gene BT_0984; full-length gene in pET28a (NheI/XhoI), N-terminal His6 tag, expressed in E. coli BL21(DE3) or TUNER; cobalt IMAC purified
T1 sequence (Q8A933 1-803): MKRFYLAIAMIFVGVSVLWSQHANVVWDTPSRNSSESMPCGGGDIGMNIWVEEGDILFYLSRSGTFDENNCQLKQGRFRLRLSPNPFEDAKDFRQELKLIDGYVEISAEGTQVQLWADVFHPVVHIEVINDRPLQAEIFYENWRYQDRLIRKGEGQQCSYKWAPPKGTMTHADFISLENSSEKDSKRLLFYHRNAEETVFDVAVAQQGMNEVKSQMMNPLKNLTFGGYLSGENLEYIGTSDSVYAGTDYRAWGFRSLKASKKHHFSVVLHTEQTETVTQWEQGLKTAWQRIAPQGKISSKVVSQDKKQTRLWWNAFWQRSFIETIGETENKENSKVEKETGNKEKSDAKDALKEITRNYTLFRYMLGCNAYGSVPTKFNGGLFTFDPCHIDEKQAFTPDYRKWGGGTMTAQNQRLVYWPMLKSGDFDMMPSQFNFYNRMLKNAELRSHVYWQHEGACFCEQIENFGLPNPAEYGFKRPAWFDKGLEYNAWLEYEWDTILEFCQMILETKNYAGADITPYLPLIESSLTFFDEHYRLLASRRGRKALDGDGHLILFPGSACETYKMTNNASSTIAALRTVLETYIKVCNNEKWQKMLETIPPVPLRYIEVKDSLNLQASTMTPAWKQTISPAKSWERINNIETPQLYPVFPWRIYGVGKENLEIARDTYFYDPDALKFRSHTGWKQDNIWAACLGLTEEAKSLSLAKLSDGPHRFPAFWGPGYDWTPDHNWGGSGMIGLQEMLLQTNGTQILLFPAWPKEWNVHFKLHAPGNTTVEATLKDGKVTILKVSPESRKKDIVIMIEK
Assay: thin layer chromatography
Format: biochemical
Settings: 1 μM enzyme, 10 mM MOPS pH 7.0, 150 mM NaCl, 37 °C; slow

CO[C@@H]1[C@H](Oc2ccc([N+](=O)[O-])cc2)O[C@@H](C)[C@@H](O)[C@H]1O [4NP-MeFuc, 4-nitrophenyl-2-O-methyl-α-L-fucopyranoside]
thin layer chromatography: displayed activity on 4-nitrophenyl 2-O-methyl-α-L-fucoside (4NP-MeFuc)
